Values of other authors in PMC5129521 (Diabetes, Obesity & Metabolism, 2016).

Conditions: mice

Terminal plasma half‐life: ~7 h
SMILES: CCCCCCCCCCCCCCCC(=O)N[C@@H](CCC(=O)NCCCC[C@H](NC(=O)[C@H](C)NC(=O)[C@H](C)NC(=O)[C@H](CCC(N)=O)NC(=O)CNC(=O)[C@H](CCC(=O)O)NC(=O)[C@H](CC(C)C)NC(=O)[C@H](Cc1ccc(O)cc1)NC(=O)[C@H](CO)NC(=O)[C@H](CO)NC(=O)[C@@H](NC(=O)[C@H](CC(=O)O)NC(=O)[C@H](CO)NC(=O)[C@@H](NC(=O)[C@H](Cc1ccccc1)NC(=O)[C@@H](NC(=O)CNC(=O)[C@H](CCC(=O)O)NC(=O)[C@H](C)NC(=O)[C@@H](N)Cc1cnc[nH]1)[C@@H](C)O)[C@@H](C)O)C(C)C)C(=O)N[C@@H](CCC(=O)O)C(=O)N[C@@H](Cc1ccccc1)C(=O)N[C@H](C(=O)N[C@@H](C)C(=O)N[C@@H](Cc1c[nH]c2ccccc12)C(=O)N[C@@H](CC(C)C)C(=O)N[C@H](C(=O)N[C@@H](CCCNC(=N)N)C(=O)NCC(=O)N[C@@H](CCCNC(=N)N)C(=O)NCC(=O)O)C(C)C)[C@@H](C)CC)C(=O)O [Liraglutide]
